85 molecules from a melting point compilation (Tetko et al.; mined from patent text by program, amines drawn as free bases though some values may be those of a salt) can be followed below.

Structures are written as SMILES.

For the molecule `COc1ccc2cc([C@H](C)C(=O)OCCS(=O)CCOC(=O)OC(C)O[N+](=O)[O-])ccc2c1` (stereo not given in full), the melting point was in the range of 112 to 115 °C. `C1=C(c2ccccc2)CCN(Cc2c[nH]c3ncccc23)C1` gave a melting point of 177 to 179 °C. Molecule `CCCc1nc(SC(F)F)c(C(=O)O)n1Cc1ccc(-c2ccccc2S(=O)(=O)NC(=O)NCCC2=CCCCC2)cc1` had a melting point of 114 °C. In the case of `COC(=O)Cc1nsc(NC(=O)c2ccccc2)n1` it was 143 °C; in that of `Cc1c(CO)c2cnnc(OCc3ccc(F)cc3)c2n1C[C@H]1C[C@@H]1C`, 128 to 129 °C; in that of `COc1ccc(-c2ccc3c(c2)NC(=O)CC(c2cccc(-n4ccnc4)c2)=N3)cc1`, 207 to 208 °C. Consider `O=C(O)Cc1cc(Br)c(-c2ccc(Cl)cc2)s1`, for which the melting point was in the range of 136 to 137 °C. Consider `O=C(O)C(=O)c1ccc(OCC#Cc2ccccc2)cc1`, for which the melting point was 97 to 99 °C. `COC(=O)C1=C(C)NC(c2ncsc2Cl)=NC1c1ccc(F)cc1Cl` (stereo not given): the melting point was in the range of 98 to 100 °C. `N#CC1(O)CCN(c2ncccc2F)CC1` had a melting point of 76 to 78 °C. `COC(=O)C1Oc2ccc(C3CCCCC3)cc2C(C)(c2ccccc2)O1` (stereo not given) came in with a melting point of 107 °C. Then `COC(=O)c1ccc(-n2cccn2)cc1`, with 107 to 109 °C. The molecule `COc1ccc(C2C(Oc3ccccc3)C(=O)N2c2ccc(C(=O)O)cc2)cc1` (stereo not given) came in with a melting point of 268 °C. For the molecule `CCOC(=O)c1c(CCl)nc2sc3c(c2c1-c1ccc(OC)c(OC)c1)CCN(C(=O)c1ccc(Cl)cc1)C3`, the melting point lay in the range of 132 to 133 °C. In the case of `O=C(O)c1ccc2c(c1)S(=O)(=O)c1ccc([N+](=O)[O-])cc1C2=O` it was > 360 °C.

`CC(=O)Nc1sc(C(=O)OCc2ccccc2)c(C)c1C(=O)OC(C)(C)C` yielded a melting point of 157 to 158 °C. Then `C[C@@H](CO)Oc1ccc2cc(Br)ccc2c1`, with 71 to 72 °C; and `CCc1c(Cc2[nH]c(Cc3[nH]c(C=O)c(C)c3CC)c(CC)c2CC)[nH]c(C=O)c1C`, with 202 to 203 °C. With `CCOc1ccc(C(=O)NC2N(C)C(c3ccc(F)cc3)=NC2(C(F)(F)F)C(F)(F)F)cc1` (stereo not given), the melting point lay in the range of 115 to 116 °C. Turning to `O=C(Nc1cccc(CO)c1)NC1N=C(c2ccccc2F)c2ccccc2N(CC(=O)N2CC3CCC(CC3)C2)C1=O` (racemic), the melting point lay in the range of 143 to 161 °C.

Molecule `Cn1ccnc1Sc1c(N)cccc1Cl` registered a melting point of 123 to 124 °C. Molecule `CC(C)(C)c1cc(CCc2ccccc2NC(=O)NC2CCCCCCC2)cc(C(C)(C)C)c1O` registered a melting point of 174 to 176 °C.

For the molecule `COCCNC(=O)c1cccc(CN2C(=O)C3(COc4cc5c(cc43)CCO5)c3ccccc32)c1` (stereo not given), the melting point lay in the range of 72 to 73 °C. In the case of `C#CC[C@@H](NC(=O)OC(C)(C)C)c1nc2cc(Cl)ccc2c(=O)n1Nc1ccccc1` it was 155 to 157 °C.

The molecule `CCNc1c(S(=O)C(F)(F)F)c(C)nn1-c1c(Cl)cc(C(F)(F)F)cc1Cl` (stereo not given) registered a melting point of 76 °C.

In turn, `Cc1ccc(C2CCC(=O)Nc3ccccc32)cc1` (stereo not given) gave a melting point of 178 to 181 °C. The molecule `[N-]=[N+]=NC1CC(n2cnc3c(NCC4CC4)nc(N)nc32)OC1CO` (stereo not given) showed a melting point of 104 to 106 °C. `CCOC(=O)C(C)(C)Cc1c(SC(C)(C)C)c2cc(O)ccc2n1Cc1ccc(Cl)cc1`: the melting point lay within 151 to 152 °C. Then `CC(C)(C)OC(=O)NCCNC(=O)c1cnc(S)n1Cc1cc(F)cc(F)c1`, with 178 to 179 °C; and `Clc1nc(-c2ccco2)nc2ccccc12`, with 116 to 118 °C. Molecule `COc1c(N2CC3CCCC3(N)C2)c(F)cc2c(=O)c(C(=O)O)cn(C3CC3F)c12` (stereo not given) returned a melting point of 169 to 172 °C. `Fc1cc(-c2ccc3nnn(Cc4ccc5ncccc5c4)c3n2)ccc1OCC1CC1` yielded a melting point of 160 to 162 °C. `CC(C)(C)c1ccccc1N1CCN(C(=O)c2nc[nH]n2)CC1`: the melting point turned out to be 295 °C. Take `N#Cc1nc(N)c2ncn(C3OC(CO)C(O)C3O)c2n1` (stereo not given): the melting point was in the range of 195 to 197 °C.

`CC=CC1=NC(=Cc2cccs2)C(=O)O1` yielded a melting point of 174 to 176 °C.

With `CCC(CC)Oc1cc(C)nc(Nc2c(C)cc(C)cc2C)c1NC(=O)CCl`, the melting point is 79 to 82 °C. In the case of `c1ccc(SC2(Sc3ccccc3)CCCn3cc(-c4ccccc4)nc32)cc1` it was 129 to 131 °C; in that of `O=C(NN=Cc1ccc2ccccc2n1)c1ccccc1`, 171 °C; in that of `CCOC(=O)Cn1ncc(-c2ccccn2)c1-c1ccccc1`, 98 to 100 °C. Consider `C/C=C(/C)c1ccc2c(c1)C(=O)N(c1ccc3c(ccn3C)c1)C2`, for which the melting point lay within 144 to 145 °C.

`O=C(O)CCCc1cc2nc(Cl)ccc2n1S(=O)(=O)c1cc(C(F)(F)F)cc(C(F)(F)F)c1` registered a melting point of 155 to 164 °C.

`Cn1cc(C(=O)O)cc1C(=O)OC(c1ccc2c(c1)OCO2)c1ccc2c(c1)OCO2` came in with a melting point of 103 to 110 °C. In the case of `Cc1ccc(-c2[nH]c(C(F)(F)F)nc2-c2ccc(S(C)(=O)=O)cc2)cc1` it was 234 to 238 °C; in that of `O=C(Cl)c1sc2ccc(OCc3ccccc3)cc2c1Cl`, 139 to 142 °C; in that of `COc1ccc(Cn2cnc3c(-c4ccco4)nc(C(F)(F)F)nc32)cc1`, 149 to 150 °C. With `Cc1noc(NS(=O)(=O)c2ccc(C(C)(C)C)cc2)c1C`, the melting point lay in the range of 151 to 154 °C. Molecule `CCN1C(=O)SC(Cc2ccc(N)cc2)C1=O` (stereo not given) came in with a melting point of 103 to 104 °C. With `COc1cc(OC)c2c(=O)[nH]c(-c3ccc4[nH]c(CCO)cc4c3)nc2c1`, the melting point lay in the range of 237 to 238 °C. With `O=C1NCCN(Cc2ccc(OCc3ccccc3)cc2)C1c1ccccc1` (stereo not given), the melting point lay within 207 to 211 °C. In the case of `CS(=O)(=O)n1cc(-c2ccccc2)c(=O)n1-c1ccccn1` it was 112 to 114 °C; in that of `Cc1nc(-c2c(F)cccc2F)nn1-c1ccccc1C(F)(F)F`, 80 to 82 °C. In the case of `O=C(C1CC1)N1CCC2(CC1)Cc1ccccc1O2` it was 111 to 113 °C; in that of `CSc1nccn1CC(=O)NC1C(=O)N2C(C(=O)O)=C(COC(C)=O)CSC12` (stereo not given), 245 to 247 °C. In the case of `O=C(Nc1n[nH]c(=S)s1)NC(Cc1ccccc1)C(=O)NCc1ccccc1` (stereo not given) it was 167 to 170 °C; in that of `Cn1cnnc1C(O)(c1ccc(Cl)cc1)c1ccc2c(c1)c(-c1cccc(Cl)c1)cc(=O)n2Cc1ccc(C#N)cc1` (stereo not given), 185 °C. `CCCCOC(=O)c1ccc(Cl)nn1` registered a melting point of 110 to 111 °C. Turning to `Cc1cc(Oc2ccc(C(F)(F)F)cc2[N+](=O)[O-])nn1C(=O)NC(C)(C)C`, the melting point fell in the range of 104 to 106 °C. `COC(=O)CCC(NC(=O)c1cn(C(c2ccccc2)(c2ccccc2)c2ccccc2)c(I)n1)C(=O)OC` (stereo not given) had a melting point of 86 to 88 °C. `CC(C)(C)c1cc(CCc2ccccc2NC(=O)NCC(C)(C)c2cccc(F)c2)cc(C(C)(C)C)c1O` had a melting point of 165 to 166 °C. For `CCOC(=O)c1c(CCl)nc2sc3c(c2c1-c1ccc(OC)c(OC)c1)CN(C(=O)OCc1ccccc1)CC3`, the melting point is 125 to 126 °C. `CC1(C)CCC(C)(C)c2cc(-c3cc(-c4ccc(C(=O)O)cc4)ccc3OCCCCCCO)ccc21` displayed a melting point of 200 to 201 °C. `CC(=O)NC1CCN(Cc2ccccc2)C1C` (stereo not given) returned a melting point of 51 to 54 °C. For `O=C(CCCCCNC(=O)[C@H](Cc1c[nH]c2ccccc12)NC(=O)Cc1ccc2ccccc2c1)NO`, the melting point lay within 112 to 114 °C. `CC(C)(C)NCC(O)COc1ccccc1C(=O)Nc1cccc2c1CC(=O)N2` (stereo not given) returned a melting point of 160 °C. Take `CC1(C)CCc2c1ccc1c2CCc2cc(O)ccc2-1`: the melting point lay in the range of 152 to 153 °C. With `NS(=O)(=O)c1ccc(F)c(C(O)CCl)c1` (stereo not given), the melting point was 112 °C. In the case of `CC12CCC(C(=O)Nc3ccc(CC#N)cc3)(OC1=O)C2(C)C` (stereo not given) it was 147 to 152 °C; in that of `O=C(CBr)Nc1ccc(I)cc1C(=O)c1ccccc1Cl`, 150 to 152 °C. In the case of `N#Cc1c[nH]c2cc(N3CCC(N4CCCC4)CC3)c([N+](=O)[O-])cc2c1=O` it was 232 to 235 °C. `CCCc1nn(C)c2c(=O)n(CCOc3cccc(OC(C)(CC)C(=O)O)c3)c(C)nc12` (stereo not given): the melting point was 130 to 132 °C. In turn, `CC(C)C1N(CC(N)=O)C(=O)CN1C(=O)CCl` (stereo not given) registered a melting point of 163 °C. As for `Cc1nc2ccc3c(c2o1)OC(CN1C2CCC1CC(O)(c1ccccc1)C2)CO3` (stereo not given), the melting point lay within 203 to 205 °C.

Molecule `Nc1cccc(CSCCNC(=O)c2c(Cl)cccc2Cl)c1` gave a melting point of 55 to 56 °C. The molecule `NC(=O)c1c(F)ccc(F)c1N` came in with a melting point of 121 to 123 °C.

In turn, `CCCCCCCCCCCCCCCCCNC(=O)OCC(CO)Oc1ccon1` (stereo not given) showed a melting point of 71 to 72 °C. With `Cn1c([N+](=O)[O-])cnc1C1=NOC2OCCCC12` (stereo not given), the melting point lay in the range of 140 to 142 °C. `O=C(O)C1CCC2CCCCC2N1` (stereo not given) came in with a melting point of 173 to 176 °C. Take `CC(C)(C)OC(=O)NC(Cc1ccccc1)C(=O)OC(Cc1c[nH]cn1)C(=O)O` (stereo not given): the melting point fell in the range of 130 to 131 °C. On to `N#Cc1ccc(C(=O)C(Br)C(Br)c2ccc(C#N)cc2)cc1` (stereo not given), for which the melting point lay in the range of 192 to 193 °C. In the case of `Cc1c(C=O)c2c(c(C)c1NC(=O)CC(C)(C)C)C(c1ccc(C(C)C)cc1)CS2` (stereo not given), the melting point was 134 to 140 °C. `Cc1cccc(NC(=O)NC2CN(C(=O)CN3CCN(C)CC3)c3ccccc3N(CC(=O)c3ccccc3C)C2=O)c1` (stereo not given) displayed a melting point of 245 to 247 °C. In turn, `CN1C(=O)CC[C@]2(C)c3ccc(Sc4nc(-c5ccccc5)cc5ccccc45)cc3CC[C@@H]12` registered a melting point of 183 to 189 °C.

With `C[C@]12CC[C@H]3[C@@H](CCC4=CC(=O)CC[C@@]43COC(=O)C34CC5CC(CC(C5)C3)C4)[C@@H]1CCC2=O`, the melting point lay in the range of 161 to 163 °C. Then `N#CCNC(=O)c1ccc([N+](=O)[O-])cc1`, with 147 to 149 °C; and `COC(=O)CCc1cc2nc(Cl)ccc2n1S(=O)(=O)c1cccc(OC(F)(F)F)c1`, with 102 °C.
